Test [1] addresses mTOR (Homo sapiens (Human), UniProt P42345). Nature of the test: mTOR kinase activity assay (phosphorylation status of mTOR substrate 4E-BP1; TR-FRET). The class given is biochemical. As to conditions: GFP-4E-BP1 substrate, 8 μM ATP. As to the method:
mTOR Kinase Activity Assay
(Phosphorylation Status of mTOR Substrate 4E-BP1; TR-FRET)
The mTOR kinase TR-FRET assay utilizes a physiologically relevant protein substrate for mTOR (4E-BP1, labeled with an acceptor fluorophore (Green Fluorescent Protein) and paired with a corresponding Tb-labeled phospho-specific antibody.
The assay itself is divided into two phases: the reaction phase and the detection phase. In the reaction phase, all components required for the kinase reaction are added to the well, including the labeled protein substrate. The reaction is allowed to incubate for 60 minutes. After the reaction, EDTA is added to stop the kinase reaction, and terbium-labeled antibody is added to bind phosphorylated product. Because the terbium chelate is stable at the EDTA concentrations used to stop a kinase assay, the antibody and EDTA can be pre-mixed prior to addition to minimize pipetting steps. Binding of the terbium labeled antibody to the fluorophore-labeled phosphorylated product brings the terbium and GFP into proximity, resulting in an increase in TR-FRET. In the presence of an inhibitor, formation of phosphorylated product is reduced, and the TR-FRET value is decreased.
• GFP-4E-BP1 substrate; Invitrogen order no. PV4759 • Lanthascreen Tb-anti-p4E-BP1 (pThr46) Antibody Kit; Invitrogen order no. PV4758 • FRAP1 (mTOR) kinase; Invitrogen order no.
400 nM GFP-4E-BP1, 8 μM ATP, ˜150 ng/mL mTOR, 50 mM HEPES pH 7.5, 0.01% Polysorbate 20, 1 mM EGTA, 10 mM MnCl2, and variable amounts of test compounds.
Note: Thaw and keep mTOR, the substrate, ATP, and the antibody on ice prior to making working dilutions. Working dilutions of these components can be kept at room temperature for short periods of time the day of use. • 1. Add 2 ml of 5× Assay Buffer to 8 ml water to prepare 10 ml of 1× Assay Buffer, wherein the concentration of 1× Assay Buffer is 50 mM HEPES pH 7.5, 0.01% Polysorbate 20, 1 mM EGTA, and 10 mM MnCl2. • 2. Prepare Antibody/EDTA Solution by first adding 2.75 μl of Tb-anti p4E-BP1 Antibody to 2397 μl of LanthaScreen™ TR-FRET Dilution Buffer. Then, add 100 μl of 0.5 M EDTA. • 3. […] Then, add 1.6 μl of mTOR (0.45 mg/mL). • 4. Prepare ATP Solution by adding 3.2 μl of 10 mM ATP to 1997 μl of 1× Assay Buffer. Serial Dilution of Inhibitors (16 Point Curve)
Inhibitors are serially diluted in DMSO, then diluted to a 4× working concentration with 1× Assay Buffer. • 1. Dispense 40 μl of DMSO to two adjacent columns of a 96 well plate per compound (e.g. columns 1 and 2). • 2. Add 10 μl of inhibitor stock (10 mM) to the first well of the first column (A1) and mix. • 3. Remove 10 μl from A1 and transfer to the adjacent well in the next column (B1) and mix. • 4. Remove 10 μl from B1 and transfer to the next well in the first column (B2) and mix. • 5. […] Remove 4 μl of diluted compounds and add to 96 μl of 1× Assay Buffer in a 96-well plate making 4× compound dilutions. Kinase Reaction • 1. Add 2.5 μl of 4X compound dilutions to a 384-well plate. • 2. […] Preincubate for […] at RT (shaker). • 5. Add 5 μl of ATP Solution to all wells to start reactions. • 6. Shake the assay plate on a plate shaker for 30 seconds. • 7. Incubate the assay plate for one hour at room temperature (20-25° C.). Stop Step and Fluorescence Detection • 1. Add 10 μl of Antibody/EDTA Solution to each well in columns 1-9. • 2. Shake the assay plate on a plate shaker for 30 seconds. • 3. Incubate the assay plate for one hour at room temperature (20-25° C.). • 4. Measure the GFP (FRET) and terbium (reference) emission signals on a fluorescence plate reader (e.g. Perkin Elmer Envision). Data Analysis • 1. Calculate the emission ratio for each sample by dividing the GFP (FRET) signal by the terbium (reference) signal. • 2.
A general note: Time-resolved FRET reads energy transfer from a long-lived donor to a nearby acceptor.

For test [2], the target named is PI3Kalpha (Homo sapiens (Human), UniProt P42336). Kind of test: Inhibition of PI3Kalpha-induced PIP-2 phosphorylation (filter-binding assay). The class given is biochemical. The settings on record: 33P-ATP. As to the method: Inhibition of PI3Kalpha-Induced PIP-2 Phosphorylation
Method Type: Filter-Binding-Assay
Aliquoted in desired amounts and stored at −80° C. Final assay concentration 25 ng/well.

Test [3] deals with PC3 (human prostate carcinoma cell line) cells. Nature of the test: PC3 proliferation test. The class given is cell-based. As to conditions: PC-3, 72 h, 3 days incubation, DNA dye fluorescence.
Description: The test is based on measurement of cellular DNA content via fluorescent dye binding. Because cellular DNA content is highly regulated, it is closely proportional to cell number. The extent of proliferation is determined by comparing cell counts for samples treated with drugs with untreated controls.
PC3 (human prostate carcinoma cell line) cells are sown in microtitre plates and incubated overnight in culture medium at 37° C. and 5% CO2. The test substances are diluted stepwise and added to the cells such that the total volume is 200 μL/well. Cells to which diluent, but not substance, is added serve as controls.

mTOR, sequence (P42345 1360-2549): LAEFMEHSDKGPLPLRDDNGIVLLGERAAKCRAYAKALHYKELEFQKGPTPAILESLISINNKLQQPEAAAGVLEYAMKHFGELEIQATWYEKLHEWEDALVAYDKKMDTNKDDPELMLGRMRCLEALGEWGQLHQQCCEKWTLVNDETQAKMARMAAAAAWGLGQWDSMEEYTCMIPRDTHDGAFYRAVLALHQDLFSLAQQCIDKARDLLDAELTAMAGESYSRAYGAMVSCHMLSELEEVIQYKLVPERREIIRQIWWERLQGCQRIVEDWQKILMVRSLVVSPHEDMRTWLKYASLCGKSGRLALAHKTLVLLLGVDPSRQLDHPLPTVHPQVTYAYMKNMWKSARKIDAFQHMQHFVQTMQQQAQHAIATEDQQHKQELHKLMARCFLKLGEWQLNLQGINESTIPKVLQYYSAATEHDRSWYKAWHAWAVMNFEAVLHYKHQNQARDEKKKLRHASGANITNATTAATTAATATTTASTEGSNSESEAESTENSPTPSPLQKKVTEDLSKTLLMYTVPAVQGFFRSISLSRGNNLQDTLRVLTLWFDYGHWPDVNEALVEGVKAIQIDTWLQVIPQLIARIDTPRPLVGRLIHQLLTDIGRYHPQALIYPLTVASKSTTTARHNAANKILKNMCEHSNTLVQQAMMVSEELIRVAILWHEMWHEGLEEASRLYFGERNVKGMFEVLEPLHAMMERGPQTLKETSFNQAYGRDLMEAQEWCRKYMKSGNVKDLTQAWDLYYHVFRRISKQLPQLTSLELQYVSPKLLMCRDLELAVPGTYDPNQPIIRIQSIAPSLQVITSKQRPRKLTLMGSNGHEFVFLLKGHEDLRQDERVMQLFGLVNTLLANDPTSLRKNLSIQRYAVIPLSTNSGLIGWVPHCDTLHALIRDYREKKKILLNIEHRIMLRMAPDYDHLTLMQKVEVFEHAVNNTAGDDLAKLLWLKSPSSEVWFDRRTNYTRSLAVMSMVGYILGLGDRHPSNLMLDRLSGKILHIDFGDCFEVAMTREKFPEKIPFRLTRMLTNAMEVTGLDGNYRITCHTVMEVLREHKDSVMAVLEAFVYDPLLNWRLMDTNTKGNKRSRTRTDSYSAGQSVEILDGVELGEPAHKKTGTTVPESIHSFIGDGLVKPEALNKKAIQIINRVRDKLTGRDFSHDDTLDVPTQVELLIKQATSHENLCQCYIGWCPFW
PI3Kalpha, sequence (P42336 whole entry, species assumed): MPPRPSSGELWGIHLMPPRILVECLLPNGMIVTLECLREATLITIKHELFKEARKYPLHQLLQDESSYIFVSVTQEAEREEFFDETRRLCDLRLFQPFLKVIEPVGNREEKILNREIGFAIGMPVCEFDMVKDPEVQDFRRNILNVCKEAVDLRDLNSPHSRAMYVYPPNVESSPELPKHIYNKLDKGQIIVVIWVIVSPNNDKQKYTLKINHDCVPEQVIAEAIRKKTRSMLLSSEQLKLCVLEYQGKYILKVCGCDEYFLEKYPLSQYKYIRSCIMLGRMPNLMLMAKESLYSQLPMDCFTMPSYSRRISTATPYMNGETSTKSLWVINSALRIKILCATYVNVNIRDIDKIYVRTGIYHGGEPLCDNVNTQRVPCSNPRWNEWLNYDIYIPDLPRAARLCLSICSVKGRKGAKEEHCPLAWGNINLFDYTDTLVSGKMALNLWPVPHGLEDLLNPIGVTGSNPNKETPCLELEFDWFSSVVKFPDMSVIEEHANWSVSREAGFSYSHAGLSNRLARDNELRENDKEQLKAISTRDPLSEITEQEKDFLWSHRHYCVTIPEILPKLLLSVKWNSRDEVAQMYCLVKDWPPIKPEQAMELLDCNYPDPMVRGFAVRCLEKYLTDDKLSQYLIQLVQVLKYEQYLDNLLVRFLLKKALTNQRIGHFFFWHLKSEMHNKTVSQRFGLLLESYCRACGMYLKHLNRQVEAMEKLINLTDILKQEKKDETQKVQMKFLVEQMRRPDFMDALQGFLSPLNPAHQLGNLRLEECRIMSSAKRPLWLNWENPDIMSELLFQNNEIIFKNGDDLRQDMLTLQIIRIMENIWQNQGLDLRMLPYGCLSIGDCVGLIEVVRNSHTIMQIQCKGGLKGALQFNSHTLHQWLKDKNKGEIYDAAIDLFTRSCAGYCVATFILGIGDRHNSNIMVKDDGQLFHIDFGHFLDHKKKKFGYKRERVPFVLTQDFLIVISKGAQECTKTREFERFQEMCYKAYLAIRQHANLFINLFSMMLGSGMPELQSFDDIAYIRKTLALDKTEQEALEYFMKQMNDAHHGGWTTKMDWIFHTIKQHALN
PI3Kalpha, sequence (P27986 whole entry partner, species assumed): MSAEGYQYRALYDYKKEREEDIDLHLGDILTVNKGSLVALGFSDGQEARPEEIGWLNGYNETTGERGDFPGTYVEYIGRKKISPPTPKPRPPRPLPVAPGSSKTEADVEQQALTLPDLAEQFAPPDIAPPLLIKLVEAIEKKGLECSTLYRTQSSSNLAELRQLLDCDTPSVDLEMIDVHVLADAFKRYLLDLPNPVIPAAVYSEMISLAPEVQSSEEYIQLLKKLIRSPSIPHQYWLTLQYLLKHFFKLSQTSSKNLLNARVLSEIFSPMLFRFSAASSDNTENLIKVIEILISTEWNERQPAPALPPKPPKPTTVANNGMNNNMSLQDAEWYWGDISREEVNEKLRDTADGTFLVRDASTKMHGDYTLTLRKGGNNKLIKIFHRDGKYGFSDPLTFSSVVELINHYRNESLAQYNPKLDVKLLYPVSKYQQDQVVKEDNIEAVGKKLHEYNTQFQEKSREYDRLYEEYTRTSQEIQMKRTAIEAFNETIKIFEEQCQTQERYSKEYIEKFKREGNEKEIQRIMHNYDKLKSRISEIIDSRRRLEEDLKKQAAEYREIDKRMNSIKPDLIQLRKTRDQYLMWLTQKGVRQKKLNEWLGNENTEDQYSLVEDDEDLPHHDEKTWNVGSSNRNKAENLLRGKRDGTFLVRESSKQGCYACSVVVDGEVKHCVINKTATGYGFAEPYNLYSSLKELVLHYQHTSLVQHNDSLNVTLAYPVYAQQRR

As usually defined, the IC50 is the concentration that inhibits the measured activity by half. The low end stands for inhibition by little substance, the high end for a need for much substance. In turn, `CCc1ncnc(N2CCN(Cc3nc(C)c(C)o3)CC2)c1C#Cc1ccc(N)nc1` [Example H-28] registered an IC50 in test [1] of 258 nM. In addition, the “IC50 PI3Ka” value in test [2] turned out to be 232 nM.
Compound `Cc1ncnc(N2CCC(CC(=O)N3CCN(C)CC3)CC2)c1C#Cc1ccc(N)nc1` [Example E-2] registered an IC50 in test [1] of 366 nM. Moreover, the “IC50 PI3Ka” value in test [2] is on record as 96 nM.
The EC50 is the concentration that produces a half-maximal response. Low readings indicate a more potent agent, high ones a less potent agent. The compound `Cc1ncnc(N2CCC(CC(=O)N(C)C)CC2)c1C#Cc1ccc(N)nc1` [Example E-1] had an IC50 in test [1] of 45 nM. Also, a half-maximal effect in test [3] (EC50) was put at 221 nM. Further, the “IC50 PI3Ka” value in test [2] came to 54 nM.
Consider `Cc1ncnc(N2CCC(CNC(=O)CN(C)C)CC2)c1C#Cc1ccc(N)nc1` [Example F-4], for which, in test [1], 457 nM corresponded to half-maximal inhibition (IC50). Also, the “IC50 PI3Ka” value in test [2] came to 301 nM.
`CCc1ncnc(N2CCC(O)(CC)CC2)c1C#Cc1ccc(N)nc1` [Example B-36] came in with an IC50 in test [1] of 5 nM. In addition, the EC50 in test [3] is 20 nM.
For `Cc1ncnc(N2CCC(CC(=O)N(C)CCN(C)C)CC2)c1C#Cc1ccc(N)nc1` [Example E-3], it took 457 nM to reach half-maximal inhibition in test [1] (IC50). Further, the “IC50 PI3Ka” value in test [2] turned out to be 2001 nM.
`CCc1ncnc(N2CCN(C3COC3)CC2)c1C#Cc1ccc(N)nc1` [Example H-26]: in test [1], it took 47 nM to reach half-maximal inhibition (IC50). Further, in test [2], the “IC50 PI3Ka” value came out at 105 nM.
The like results for `Cc1ncnc(N2CCC(CNC(=O)CC(C)C)CC2)c1C#Cc1ccc(N)nc1` [Example F-7] were, in that order, 237 nM and 47 nM.
In test [1], `Cc1ncnc(N2CCC(C)(O)CC2)c1C#Cc1ccc(N)nc1` [Example B-23] gave an IC50 of 7 nM. Besides, in test [3], the EC50 is 19 nM.
On to `CCc1ncnc(N2CCN(C3CCOCC3)CC2)c1C#Cc1ccc(N)nc1` [Example H-12], for which the IC50 in test [1] amounted to 77 nM. Besides, the “IC50 PI3Ka” value in test [2] was determined as 141 nM.
In test [1], `CCc1ncnc(N2CCn3c(COC)nnc3C2)c1C#Cc1ccc(N)nc1` [Example H-8] came in with an IC50 of 127 nM. Moreover, the “IC50 PI3Ka” value in test [2] is reported as 185 nM.
The like results for `Cc1ncnc(N2CCC(CC(=O)NCCN(C)C)CC2)c1C#Cc1ccc(N)nc1` [Example E-8] were, in that order, 261 nM and 149 nM.
For the compound `CCc1ncnc(N2CCc3c(ncnc3N3CCOCC3)C2)c1C#Cc1ccc(N)nc1` [Example H-27], it took 139 nM to reach half-maximal inhibition in test [1] (IC50). Also, in test [2], the “IC50 PI3Ka” value was found to be 103 nM.
In test [1], `CCc1ncnc(N2CCc3ccccc3C2)c1C#Cc1ccc(N)nc1` [Example H-17] had an IC50 of 68 nM. Further, in test [2], the “IC50 PI3Ka” value stood at 56 nM.
`CCc1ncnc(N2CCNC(=O)C2)c1C#Cc1ccc(N)nc1` [Example H-5] yielded an IC50 in test [1] of 91 nM. In addition, the “IC50 PI3Ka” value in test [2] is on record as 745 nM.
The compound `CCc1ncnc(N2CCN(C(=O)N3CCOCC3)CC2)c1C#Cc1ccc(N)nc1` [Example H-16] displayed an IC50 in test [1] of 22 nM. In addition, the “IC50 PI3Ka” value in test [2] is 116 nM.
The compound `CCc1ncnc(N2CCN(c3ccccc3C(F)(F)F)CC2)c1C#Cc1ccc(N)nc1` [Example H-19] came in with an IC50 in test [1] of 2000 nM. In test [2], the “IC50 PI3Ka” value is 1861 nM.
In test [3], `CCOC1CCN(c2ncnc(CC)c2C#Cc2ccc(N)nc2)CC1` [Example B-46] yielded an EC50 of 72 nM.
`CCc1ncnc(N2CCN(CCN3CCOCC3)CC2)c1C#Cc1ccc(N)nc1` [Example H-9] showed an IC50 in test [1] of 1570 nM. Also, in test [2], the “IC50 PI3Ka” value is recorded as 449 nM.
`Cc1ncnc(N2CCC(=O)CC2)c1C#Cc1ccc(N)nc1` [Example B-65] had an EC50 in test [3] of 218 nM.
Regarding `CCc1ncnc(N2CCNC(=O)C2)c1C#Cc1ccc(N)nc1` [Example H-4], the IC50 in test [1] was 45 nM. Also, the “IC50 PI3Ka” value in test [2] worked out at 58 nM.
In the same order, the values of `CCc1ncnc(N2CCC3(CCCCC3)CC2)c1C#Cc1ccc(N)nc1` [Example H-3] are 333 nM and 369 nM.
The compound `CCc1ncnc(N2CCN(CCCS(C)(=O)=O)CC2)c1C#Cc1ccc(N)nc1` [Example H-15] displayed an IC50 in test [1] of 25 nM. The “IC50 PI3Ka” value in test [2] is 108 nM.
In the same order, the values of `CCc1ncnc(N2CCc3cc(OC)c(OC)cc3C2)c1C#Cc1ccc(N)nc1` [Example H-18] are 83 nM and 43 nM.

The values above are taken from patent publication US8618111B2, “5-alkynyl-pyrimidines” (Boehringer Ingelheim International GmbH, priority 2010, dated 2013).
